Source: patent US7816522B2, “Triazolone derivatives” (Eisai Co., Ltd., priority 2006, dated 2010)

biological target: T1, human clotting factor VIIa (Homo sapiens, UniProt P08709); assay: Inhibitory activity against clotting factor VIIa (chromogenic substrate Spectrozyme FVIIa, TF/Factor VIIa enzyme solution); type: biochemical; conditions: human Factor VIIa 5 nmol/L with human TF 10 nmol/L, room temperature 40 minutes, 405 nm
T1 construct: a human clotting factor VIIa (hereinafter, “Factor VIIa”) purified sample; purchased Enzyme Research Laboratories HFVIIa
Method in brief: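 Human Factor VIIa (5 nmol/L) with human TF (10 nmol/L) in Tris-BSA buffer pH 7.4 containing 15 mmol/L CaCl2 and cephalin, with Spectrozyme FVIIa substrate. Reaction 40 min at room temperature; 4-nitroanilide read at 405 nm. IC50 by non-linear regression over 100 μmol/L–0.1 nmol/L.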

T1 sequence (P08709 213-466 limits assumed): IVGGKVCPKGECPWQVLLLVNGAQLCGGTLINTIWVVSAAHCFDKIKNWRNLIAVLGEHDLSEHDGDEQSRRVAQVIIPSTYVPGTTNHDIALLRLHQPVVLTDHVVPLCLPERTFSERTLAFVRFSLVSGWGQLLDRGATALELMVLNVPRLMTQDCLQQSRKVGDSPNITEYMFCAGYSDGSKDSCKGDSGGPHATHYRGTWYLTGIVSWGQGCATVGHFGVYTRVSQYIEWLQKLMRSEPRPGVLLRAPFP
T1 sequence (P08709 61-212 limits assumed): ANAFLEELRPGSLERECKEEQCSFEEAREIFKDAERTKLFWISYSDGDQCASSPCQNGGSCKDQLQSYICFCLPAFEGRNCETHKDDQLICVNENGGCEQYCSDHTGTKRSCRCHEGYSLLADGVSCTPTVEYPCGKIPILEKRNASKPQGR
T1 sequence (P13726 33-295 partner): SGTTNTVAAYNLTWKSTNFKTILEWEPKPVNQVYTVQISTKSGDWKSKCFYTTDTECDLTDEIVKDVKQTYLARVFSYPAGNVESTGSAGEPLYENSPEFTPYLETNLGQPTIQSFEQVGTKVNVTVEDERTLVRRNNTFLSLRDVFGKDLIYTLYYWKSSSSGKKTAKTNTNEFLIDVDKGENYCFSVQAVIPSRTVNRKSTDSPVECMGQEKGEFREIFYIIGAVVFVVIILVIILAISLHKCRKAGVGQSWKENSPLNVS

`Cc1cc(C(Nc2ccc(C(=N)N)cc2)c2nn(-c3ncccn3)c(=O)[nH]2)cc2c1OCOC2` (racemic) [Example 97, 4-{[(R) and (S)-(8-methyl-4H-benzo[1,3]dioxin-6-yl)-(5-oxo-1-pyrimidin-2-yl-4,5-dihydro-1H-[1,2,4]triazol-3-yl)methyl]amino}benzamidine acetate] and `COc1cc(C(Nc2ccc(C(=N)N)cc2)c2nn(-c3cnccn3)c(=O)[nH]2)cc2c1OCOC2` (racemic) [Example 102, 4-{[(R) and (S)-(8-methoxy-4H-benzo[1,3]dioxin-6-yl)-(5-oxo-1-pyrazin-2-yl-4,5-dihydro-1H-[1,2,4]triazol-3-yl)methyl]amino}benzamidine acetate] are within 1.5-fold of each other in IC50: 11.3 nM for the first, 11.5 nM for the second.

First: N=C(N)c1ccc(NC(c2nn(-c3ncccn3)c(=O)[nH]2)c2cc(OCCF)cc(OCCF)c2F)cc1 (racemic) [Example 98, 4-{[(R) and (S)-[2-fluoro-3,5-bis-(2-fluoroethoxy)phenyl]-(5-oxo-1-pyrimidin-2-yl-4,5-dihydro-1H-[1,2,4]triazol-3-yl)methyl]amino}benzamidine acetate]
Second: COc1cc(OCF)c(F)c(C(Nc2ccc(C(=N)N)cc2)c2nn(-c3ncccn3)c(=O)[nH]2)c1 (racemic) [Example 103, 4-{[(R) and (S)-(2-fluoro-3-fluoromethoxy-5-methoxyphenyl)-(5-oxo-1-pyrimidin-2-yl-4,5-dihydro-1H-[1,2,4]triazol-3-yl)methyl]amino}benzamidine acetate]
The IC50 of the first is 3.2-fold higher: 28.7 nM for the first, 8.9 nM for the second. The second is the more potent here.

First: COc1cc(OCC(F)F)c(F)c(C(Nc2ccc(C(=N)N)cc2)c2nn(-c3ncccn3)c(=O)[nH]2)c1 (racemic) [Example 99, 4-{[(R) and (S)-[3-(2,2-difluoroethoxy)-2-fluoro-5-methoxyphenyl]-(5-oxo-1-pyrimidin-2-yl-4,5-dihydro-1H-[1,2,4]triazol-3-yl)methyl]amino}benzamidine acetate]
Second: COc1cc(OCF)cc(C(Nc2ccc(C(=N)N)cc2)c2nn(-c3ncccn3)c(=O)[nH]2)c1 (racemic) [Example 104, 4-{[(R) and (S)-(3-fluoromethoxy-5-methoxyphenyl)-(5-oxo-1-pyrimidin-2-yl-4,5-dihydro-1H-[1,2,4]triazol-3-yl)methyl]amino}benzamidine acetate]
The IC50 of the first is 2.3-fold lower: 3.9 nM for the first, 8.9 nM for the second.

Compared with `COc1cc(OCCF)c(F)c(C(Nc2ccc(C(=N)N)cc2)c2nn(-c3cnccn3)c(=O)[nH]2)c1` (racemic) [Example 100, 4-{[(R) and (S)-[2-fluoro-3-(2-fluoroethoxy)-5-methoxyphenyl]-(5-oxo-1-pyrazin-2-yl-4,5-dihydro-1H-[1,2,4]triazol-3-yl)methyl]amino}benzamidine acetate], `COc1cc(F)c(C(Nc2ccc(C(=N)N)cc2)c2nn(-c3cnccn3)c(=O)[nH]2)cc1OC` (racemic) [Example 101, 4-{[(R) and (S)-(2-fluoro-4,5-dimethoxyphenyl)-(5-oxo-1-pyrazin-2-yl-4,5-dihydro-1H-[1,2,4]triazol-3-yl)methyl]amino}benzamidine acetate] is 2.1-fold higher in IC50: 5.3 nM for the first, 11 nM for the second.

`COC(=O)c1ccccc1-n1nc(C(Nc2ccc(C(=N)N)cc2)c2cc(OC)c(OC)cc2F)[nH]c1=O` (racemic) [Example 108, (R) and (S)-2-{3-[(4-carbamimidoylphenylamino)-(2-fluoro-4,5-dimethoxyphenyl)methyl]-5-oxo-4,5-dihydro-[1,2,4]triazol-1-yl}benzoic acid methyl ester acetate] and `COc1cc(F)c(C(Nc2ccc(C(=N)N)cc2)c2nn(-c3ccccc3C(N)=O)c(=O)[nH]2)cc1OC` (racemic) [Example 109, (R) and (S)-2-{3-[(4-carbamimidoylphenylamino)-(2-fluoro-4,5-dimethoxyphenyl)methyl]-5-oxo-4,5-dihydro-1H-[1,2,4]triazol-1-yl}benzamide acetate] are within 1.5-fold of each other in IC50: 8 nM for the first, 7.9 nM for the second.
